How the values were obtained:
[1] = R. Fujisawa et al. 1996, cited from earlier work
streptavidin = streptavidin (Streptomyces avidinii, UniProt P22629); assay: Recruitment of 125I-labeled streptavidin to hydroxyapatite; format: binding; conditions: 1 nmole peptide on 1 mg hydroxyapatite; 0.1 nmole 125I-streptavidin, 1 M KCl, 0.01 M phosphate pH 6.5, 45 minutes
Description: The supernatant was removed by centrifugation, and the conjugate treated hydroxyapatite washed several times with 200 μl of H2O. The amounts of radioactivity found in the supernatant, wash and conjugate treated hydroxyapatite were then measured. In control experiments, biotin-glu10 was replaced by glu10. When a peptide bound to the hydroxyapatite was ligated to biotin about 70% of the streptavidin was recruited to the hydroxyapatite and 25-30% remained in the supernatant. In the control experiment, no more than 5% of the streptavidin was bound to the hydroxyapatite.

dihydrofolate reductase = conditions: 1 nmole peptide adsorbed on 1 mg hydroxyapatite; 0.52 nmole DHFR, pH 6.4, shaken 45 minutes; SDS gel, Coumassie Blue
Description: The supernatant was removed by centrifugation and the hydroxyapatite was washed with 100 μl of water. Dihydrofolate reductase (0.52 nmole) in 200 μl of buffer containing 0.1 M ammonium sulfate, 0.01 M potassium phosphate, at pH 6.4 and 5% glycerol was added to the hydroxyapatite and shaken for 45 minutes. The hydroxyapatite was separated from the supernatant, washed with 100 μl of water and then eluted twice with 20 μl of 0.02 M K4P2O7. […] The supernatant, the washes and the pyrophosphate eluate were analyzed on a 6% arylamide SDS gel using Coumassie Blue to visualize dihydrofolate reductase.

streptavidin, sequence (P22629 25-183): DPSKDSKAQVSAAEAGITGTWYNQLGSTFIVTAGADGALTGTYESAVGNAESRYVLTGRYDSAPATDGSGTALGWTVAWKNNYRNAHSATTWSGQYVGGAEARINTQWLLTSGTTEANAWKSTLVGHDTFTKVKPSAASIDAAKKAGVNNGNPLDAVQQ

Substance | adsorption onto hydroxyapatite [1] | streptavidin recruited (bound) to the hydroxyapatite (streptavidin) | dihydrofolate reductase found in the pyrophosphate eluate (dihydrofolate reductase) | effect on mineralization of hydroxyapatite ([1]; in the presence of calcium and phosphate)
Aspartic acid hexamer [Asp6] | significantly adsorb |  |  | 
Glutamic acid decapeptide [glu10] |  | no more than 5% | only a small amount | 
glutamic acid hexamer [Glu6] | significantly adsorb |  |  | affect the mineralization
